Data as given in paper PMC12406652 (Antimicrobial Agents and Chemotherapy, 2025).

System: healthy participants
Assay: Safety and tolerability (treatment-emergent adverse events), studies VNRX-7145-101 and VNRX-7145-102
Type: in vivo, human
Procedure: Safety was assessed via ongoing monitoring of adverse events, symptom-directed physical examinations, and changes in clinical laboratory measures, vital signs, and ECGs.

Q: What does the source list for CCC(=O)N[C@H]1Cc2cccc(C(=O)OCOC(=O)C(CC)CC)c2OB1O [Ledaborbactam etzadroxil]?
A: Participants with fatigue (TEAE) (LED-E-dosed participants): 9.2%; Participants with headache (TEAE) (LED-E-dosed participants): 20.2%; Tolerability (all dose levels, alone or in combination with CTB): well tolerated; Participants with gastrointestinal TEAEs (n = 109, pooled studies, all mild): 27.5%; Serious or severe TEAEs (single or multiple doses, alone or with CTB): no serious or severe TEAEs
